Assay [1] has as its system H3122. On the set-up: method as in PMID 17185414, PMID 27144831. To be noted: cited from earlier work.
In assay [2] the test system is H2228. Also noted: method as in PMID 17185414, PMID 27144831. To be noted: cited from earlier work.
For assay [3], the system named is Hela nucleus extract containing a mixture of HDAC isoforms. Nature of the assay: HDAC enzyme inhibitory screening against Hela nucleus extract. The class given is biochemical. The settings on record: at concentration of 1.0 µM, mean of three experiments. The procedure:
The synthesised molecules were firstly screened against Hela nucleus extract containing a mixture of HDAC isoforms.
All HDAC enzymes were purchased from BPS Bioscience. In short, 60 µL of recombinant HDAC enzyme solution was mixed with various concentrations of test compound (40 µL), and then incubated at 37 °C for 30 minutes. The reaction was terminated by adding 100 µL of imaging agent containing trypsin and trichostatin A (TSA). After standing for 20 min, the fluorescence intensity was measured at the excitation and emission wavelengths of 360 and 460 nm with a microplate reader. The inhibition rate was calculated from the fluorescence intensity readings of the test wells relative to the control wells, and the IC50 curve and value were determined by GraphPad Prism 6.0 software.

Assay [4] deals with K562 cells. The assay can be described thus: In vitro antiproliferative assay (CCK-8), K562. The class given is cell-based. The settings on record: Homo sapiens, at concentration of 1.0 µM, mean of three experiments, read-out: K562 percentage inhibitory rate. The procedure:
The proliferation of cancer cells was tested by CCK-8 assay. Briefly, cells were seeded in 96-well plate with about 5 × 10^3 cells in each well. The cells were treated with tested compounds after 24 h of incubation. CCK-8 reagent ([…]) was added to each well after 72 h of incubation, and cells were incubated at 37 °C for 4 h. The light absorbance at 450 nm was measured by using an Opsys microplate reader (Dynex Technologies, Chantilly, VA, USA).

In assay [5] the test system is MDA-MB-468. The assay can be described thus: In vitro antiproliferative assay (CCK-8), MDA-MB-468. The class given is cell-based. To be noted: Homo sapiens, CCK-8, 72 h. The protocol:
(§1) Compound L20 with good performances in both enzyme and K562 cell inhibitory tests were selected for further antiproliferative assay against various cell lines. K562, U266, U937, C6, Fadu, MDA-MB-231, MDA-MB-468, A549, A2780 and HepG2 cell lines were used in the cell-based anticancer evaluation of L20.
(§2) The proliferation of cancer cells was tested by CCK-8 assay. Briefly, cells were seeded in 96-well plate with about 5 × 10^3 cells in each well. The cells were treated with tested compounds after 24 h of incubation. CCK-8 reagent ([…]) was added to each well after 72 h of incubation, and cells were incubated at 37 °C for 4 h. The light absorbance at 450 nm was measured by using an Opsys microplate reader (Dynex Technologies, Chantilly, VA, USA). Results are illustrated as percent of cell viability normalised to DMSO-treated control cells.

For assay [6], the system named is K562 cells. Nature of the assay: Cell apoptosis analysis by flow cytometry (Annexin V-BV421 / 7-AAD). To be noted: 24 h, control 1.14%. (In general: A flow cytometer gives signals particle by particle.)
Description: Cells were incubated with Annexin V-BV421 (Becton Dickinson, USA) and 7-AAD (Becton Dickinson, USA) double labelling for 30 min in the dark at room temperature and measured by flow cytometry (FACSAriaIII, Becton Dickinson, USA). The data was analysed using Flowjo-V10 software.
Assay [7] deals with MDA-MB-231. The assay can be described thus: In vitro antiproliferative assay (CCK-8), MDA-MB-231. The class given is cell-based. The settings on record: Homo sapiens, CCK-8, 72 h. The protocol: as §1, §2

This is an account of results in article PMC9291665, “Discovery and SAR analysis of 5-chloro-4-((substituted phenyl)amino)pyrimidine bearing histone deacetylase inhibitors” (Journal of Enzyme Inhibition and Medicinal Chemistry, 2022).

`COc1cc(N2CCC(N3CCN(C)CC3)CC2)ccc1Nc1ncc(Cl)c(Nc2ccccc2P(C)(C)=O)n1` [Brigatinib]: the values for the concentration for 50% growth inhibition (GI50) in assay [1] and in assay [2] were 4 nM and 10 nM, respectively.

In the case of `Cc1cc(Nc2ncc(Cl)c(Nc3ccccc3S(=O)(=O)C(C)C)n2)c(OC(C)C)cc1C1CCNCC1` [Ceritinib], the GI50 (usually the concentration that inhibits growth by half) is 62 nM in assay [1] and 121 nM in assay [2].

In the case of `O=C(NO)c1ccc(N2CCN(c3ncc(Cl)c(Nc4ccc(Cl)cc4)n3)CC2)cc1` [Compound L13, 4–(4-(5-chloro-4-((4-chlorophenyl)amino)pyrimidin-2-yl)piperazin-1-yl)-N-hydroxybenzamide], in assay [3], the “HDACs percentage inhibitory rate” value came out at 52.44 ± 1.44%. For the same compound, the inhibition at 1 µM in assay [4] was 54.1 ± 2.34%.

Regarding `O=C(NO)c1ccc(N2CCN(c3ncc(Cl)c(Nc4ccc(-c5ccccc5)cc4)n3)CC2)cc1` [Compound L14, 4–(4–(4-([1,1′-biphenyl]-4-ylamino)-5-chloropyrimidin-2-yl)piperazin-1-yl)-N-hydroxybenzamide], the “HDACs percentage inhibitory rate” value in assay [3] is recorded as 46.80 ± 1.07%. Besides, the inhibition at 1 µM in assay [4] was found to be 35.2 ± 1.21%.

`COc1cc(Nc2nc(N3CCN(c4ccc(C(=O)NO)cc4)CC3)ncc2Cl)cc(OC)c1OC` [Compound L15, 4–(4-(5-chloro-4-((3,4,5-trimethoxyphenyl)amino)pyrimidin-2-yl)piperazin-1-yl)-N-hydroxybenzamide]: in assay [3], the “HDACs percentage inhibitory rate” value amounted to 58.15 ± 2.02%. The inhibition at 1 µM in assay [4] turned out to be 58.6 ± 2.01%.

For the compound `O=C(NO)c1ccc(N2CCN(c3ncc(Cl)c(Nc4cccc(I)c4)n3)CC2)cc1` [Compound L16, 4-(4-(5-chloro-4-((3-iodophenyl)amino)pyrimidin-2-yl)piperazin-1-yl)-N-hydroxybenzamide], the “HDACs percentage inhibitory rate” value in assay [3] was 46.50 ± 4.74%. Besides, in assay [4], the inhibition at 1 µM stood at 37.1 ± 1.54%.

Take `O=C(NO)c1ccc(N2CCN(c3ncc(Cl)c(Nc4ccc(I)cc4)n3)CC2)cc1` [Compound L17, 4-(4-(5-chloro-4-((4-iodophenyl)amino)pyrimidin-2-yl)piperazin-1-yl)-N-hydroxybenzamide]: the “HDACs percentage inhibitory rate” value in assay [3] was found to be 54.51 ± 3.05%. In addition, the inhibition at 1 µM in assay [4] is 56.4 ± 2.16%.

On to `O=C(NO)c1ccc(N2CCN(c3ncc(Cl)c(Nc4ccc(F)c(Cl)c4)n3)CC2)cc1` [Compound L18, 4-(4-(5-chloro-4-((3-chloro-4-fluorophenyl)amino)pyrimidin-2-yl)piperazin-1-yl)-N-hydroxybenzamide], for which the “HDACs percentage inhibitory rate” value in assay [3] was found to be 52.92 ± 2.00%. Besides, the inhibition at 1 µM in assay [4] is 31.3 ± 0.92%.

Consider `CC(C)S(=O)(=O)c1ccccc1Nc1nc(N2CCN(c3ccc(C(=O)NO)cc3)CC2)ncc1Cl` [Compound L19, 4-(4-(5-chloro-4-((2-(isopropylsulfonyl)phenyl)amino)pyrimidin-2-yl)piperazin-1-yl)-N-hydroxybenzamide], for which the “HDACs percentage inhibitory rate” value in assay [3] was 44.91 ± 4.97%. For the same compound, in assay [4], the inhibition at 1 µM amounted to 21.3 ± 0.65%.

As to `COc1ccc(Nc2nc(N3CCN(c4ncc(C(=O)NO)cn4)CC3)ncc2Cl)cc1OC` [Compound L21, 2–(4-(5-chloro-4-((3,4-dimethoxyphenyl)amino)pyrimidin-2-yl)piperazin-1-yl)-N-hydroxypyrimidine-5-carboxamide], the “HDACs percentage inhibitory rate” value in assay [3] turned out to be 58.95 ± 0.74%. In addition, the inhibition at 1 µM in assay [4] was 62.6 ± 2.45%.

With `O=C(NO)c1cnc(N2CCN(c3ncc(Cl)c(Nc4ccc(-c5ccccc5)cc4)n3)CC2)nc1` [Compound L22, 2–(4-(4-([1,1′-biphenyl]-4-ylamino)-5-chloropyrimidin-2-yl)piperazin-1-yl)-N-hydroxypyrimidine-5-carboxamide], the “HDACs percentage inhibitory rate” value in assay [3] is given as 40.93 ± 0.50%. Also, the inhibition at 1 µM in assay [4] was determined as 37.1 ± 2.11%.

`O=C(CCCCCCC(=O)Nc1ccccc1)NO` [SAHA, Vorinostat, reference compound]: the IC50 (commonly the concentration at which inhibition is half-maximal) came out at 4850 ± 230 nM in assay [5] and 3590 ± 240 nM in assay [7]. Besides, the “apoptotic rate of K562 cells” value was determined as 1.39% in assay [6] (1 µM), 3.36% in assay [6] (2 µM) and 19.75% in assay [6] (4 µM).
